Measured values reported in patent US20200370076A1, “USE OF GALACTURONATE AND OR GALACTURONATE POLYMERS IN CONJUNCTION WITH CARBOHYDRATES TO CONTROL METABOLIC STATE OF ORGANISMS” (Department of the Army, U.S. Army CCDC Army Research …, priority 2019, published 2020).

What was measured:
[1] = tested on: Clostridium acetobutylicum; assay: Fermentation product formation by Clostridium acetobutylicum grown on different substrates; format: cell-based; conditions: organism grown on the named substrate
Experimental: Experimentally, mixtures of any of galacturonate and galacturonate polymers with glucose are fed to Clostridium acetobutylicum. It was observed that the organism co-utilized the substrates. […] Bacterial culture conditions and strains have been previously published. […] Clostridium acetobutylicum strain ATCC 824 was obtained from ATCC and cultured using company protocol at 37° C. into Clostridial growth medium or CGM containing 0.75 g KH2PO4, 0.75 g K2HPO4, 1.0 g NaCl, 0.017 g MnSO4.5H2O, 0.70 g MgSO4.7H2O, 0.01 g FeSO4.7H2O, 2.0 g […], 5.0 g yeast extract, 2.0 g (NH4)2SO4, and 0.5% final concentration of desired carbohydrate-D-glucose, D-galacturonic acid, D-gluconic acid-at pH 6.5. Active cultures from initial growth stock were added to potato glucose medium to be maintained and stored as a spore solution. Potato glucose medium or PGM contains per liter of H2O-150 g grated fresh potato, 10 g D-glucose, 0.5 g (NH4)SO4, and 3 g CaCO3. The medium was boiled for 1 hour and strained through gauze before sterilization and use for culture. Spore solution was activated for culturing through a heat shock at 80° C. for 9 minutes. Shocked spore solution was added to CGM containing the feed stock of choice and grown to late log of 0.8 at optical density of 600 nm (OD600) at 37° C. Theses cultures were then used to perform antibiotic sensitivity experiments.

[2] = tested on: Clostridium acetobutylicum; assay: Substrate concentration over time during co-fed fermentation (FIG. 4); format: cell-based
Source text: FIG. 4 is a graph illustrating the uptake of individual oxidized sugars mixed for co-feeding during a fermentation process of Clostridial acetobutylicum; FIG. 4, with reference to FIGS. 1 through 3, is a graph illustrating the concentration of various feedstock during a fermentation process. […] The co-utilization of any of galacturonate and galacturonate polymers with glucose could be used to control the metabolic state of the cells by altering the production of reduced electron carriers such as NADH and/or NADPH. This can allow for fine-tuning production of chemicals. The overall trend of the concentration over time shown in FIG. 4 for galacturonic (gal) acid and glucose (glu) is generally the same; i.e., a gradual decrease in the concentration over time. For example, the concentration of the galacturonic acid is approximately 7.5 at time 0 with a gradual decline in concentration to approximately 4 at approximately 3 hours, followed by a greater decline in concentration resulting in a 0 concentration at approximately 7 hours.

## O=C[C@H](O)[C@@H](O)[C@@H](O)[C@H](O)C(=O)O [galacturonate, D-galacturonic acid]
[1]
  acetate produced: approximately 23.6 mM
  butyrate produced: approximately 0.6 mM
[2]; FIG. 4, approximately 3 hours
  concentration of feedstock during fermentation: approximately 4
[2]; FIG. 4, approximately 7 hours
  concentration of feedstock during fermentation: 0
[2]; FIG. 4, glucose/galacturonate co-feeding, time 0
  concentration of feedstock during fermentation: approximately 7.5
